Assay results from article PMC7426938, “Induction of mitochondria-mediated apoptosis and suppression of tumor growth in zebrafish xenograft model by cyclic dipeptides identified from Exiguobacterium acetylicum” (Scientific Reports, 2020).

How the values were obtained:
[1] = test system: Cytc (Cytochrome-c) mRNA in HT-29 cells; assay: sqRT-PCR gene expression, Cytc; assay type: cell-based, human; conditions: 200 μM, 24 h, vs untreated cells
Experimental: (§1) Total RNA was isolated from HT-29 cells using the TRIzol reagent (TaKara, Japan) following the manufacturer’s instruction. The quantity and quality of each RNA sample were analyzed with a NanoDrop-1000 (Thermo Fisher Scientific, USA), followed by conversion to cDNA using RevertAid cDNA synthesis kit (Thermo Fisher Scientific, CA, USA) using 1 μg of mRNA to synthesize cDNA. Semi-quantitative reverse transcriptase-polymerase chain (sqRT-PCR) reaction was carried out in a Veriti Thermal Cycler (Applied Biosystems, CA, USA) using 2X Taq DNA polymerase Master Mix RED (Ampliqon, Denmark, Germany) as we previously described method. All sqRT-PCRs were run for at least three times. GAPDH served as a housekeeping gene to normalize the expression levels. The expression levels were analyzed by measuring the intensity of the band from the gel using Image-J software.

zebrafish (ABiC) embryos [2] = assay: Zebrafish embryo developmental toxicity assay; assay type: in vivo, zebrafish (Danio rerio); parameters: unit not given here
Experimental: Laboratory animal care principles were followed and experimental procedures were conducted following guidelines established by the Institutional Animal Care, and Use Committee (IACUC), and every effort was made to minimize suffering. This study was approved by the IACUC of the Kaohsiung Medical University, Kaohsiung, Taiwan (Approval No: KMU-IACUC-105213). The wild-type (ABiC strain) zebrafish (Danio rerio) were maintained at 28 °C on a 14 h/10 h light/dark cycle under standard circulating water systems and fed with hatched brine shrimp. Embryos were obtained by natural mating male fish with female fish (2:3) in a water tank and eggs were maintained in a plastic Petri dish containing ad libitum water. After 4 h incubation, embryos were randomly divided into five experimental groups (control (without treatment), sham/vehicle control (DMSO), and three treatment groups for each cyclic dipeptide. Each group had 45 embryos per test dosage. All DKPs were tested at different doses varied from 50, 100 and 200 μM, respectively. After drug treatment, embryos were maintained in an incubator at 28 °C. The survival rate and embryonic developmental changes were observed by using an inverted microscope every 24 h interval for 96 h (Nikon Eclipse TE2000-U, Tokyo, Jap).

[3] = test system: Casp-3 (Caspase-3) mRNA in HT-29 cells; assay: sqRT-PCR gene expression, Casp-3; assay type: cell-based, human; conditions: 200 μM, 24 h, vs untreated cells
Experimental: as §1

[4] = test system: CM-Dil labelled HT-29 xenograft in zebrafish embryos; assay: Zebrafish HT-29 xenograft antitumor assay; assay type: in vivo, zebrafish (Danio rerio); parameters: inhibition of tumor growth: concentration or dose not given beside the values; conditions: for inhibition of tumor growth rate: 48 hpi; for inhibition of tumor growth rate / tumor growth reduction: 200 μM; for tumor growth reduction: 72 hpi; for inhibition of tumor growth: 24 hpi
Experimental: For cell labelling, HT-29 cells were incubated with cell tracker CM-Dil (Invitrogen, Carlsbad, CA, USA) dye at a final volume was 20 µL/mL for 25 min at 37 °C. To remove the unstrained dye, cells were washed twice and re-suspended with 1X PBS, pH 7.4 to a final density of 2.1 × 10^6 cells/mL. Prior transplantation, CM-Dil labelled cells were assessed for viability using trypan blue exclusion assay. More than > 90% of viable cells were used. For xenotransplantation, 48-hours post-fertilization (hpf) wild-type ABiC embryos were anaesthetized in 0.01% tricaine methanesulfonate (Sigma-Aldrich; MS222) solution containing 0.3% phenylthiocarbamide (PTU; Sigma-Aldrich; P7629). After anesthetization, CM-Dil (a lipophilic fluorescent tracking dye) labelled HT-29 cells grafted into the yolk sac of each zebrafish embryos by using a microinjector IM-300 (Narishige, Tokyo, Japan). After injection, embryos were incubated for 1 h at 28 °C. For confirmation of the visible cell mass at the injection site, zebrafish were transferred to an incubator and maintained at 37 °C.
[…] CM-Dil labelled HT-29 xenograft zebrafish embryos were randomly selected and hosed into 4 replicate wells in 12-well cell culture plates (5 embryos/well; 20 embryos/treatment group; 20 × 4 = 80). The different doses (50, 100 and 200 μM) of all DKPs were treated with transplanted embryos. Before DKPs treatment, the initial fluorescence intensity of transplanted cancer cells was measured at 0 hour post-injection (hpi). At the end of experiment 24, 48, and 72 hpi, all embryos were selected from each well and were photographed under an inverted fluorescence microscope (Nikon Eclipse TE2000-U, Tokyo, Japan). The following acquisition parameters were employed over time: Image scaling: Low = 130; High = 2,900; Exposure Time = 100 ms and Binning = 1. The fluorescence intensity of the tumor in the embryos was measured and the percentage of tumor growth inhibition was calculated according to the following formula: Inhibitionrate(%)=Z(Negativecontrol)-Z(Treatment)/Z(Negativecontrol)×100%

zebrafish (ABiC) embryos [5] = assay: Zebrafish embryo developmental toxicity assay; assay type: in vivo, zebrafish (Danio rerio); conditions: for survival rate of embryos compared with untreated and DMSO treated embryos: 50, 100 and 150 μM, 96 hpf
[6] = test system: Bid protein in HT-29 cells; assay: Western blot, Bid protein; assay type: cell-based, human; conditions: for Bid protein expression up-regulation: 200 μM, 24 h, vs untreated group
Experimental: Total protein was isolated from HT-29 cells by using lysis buffer. Cells were collected by centrifugation at 1,500 rpm for 5 min. After that, cell pellets were re-suspended with RIPA lysis buffer consisting of 1 mM protease inhibitor cocktail (PIC; Sigma-Aldrich; P8340) and lysed at […] for 1 h. After incubation, the protein was obtained by centrifugation at 13,000 × g for 15 min and kept for − 80 °C until analysis. Also, mitochondrial and cytosolic fractions were obtained by using fraction lysis buffer as described previously[50] with minor modifications. Lysed cells were kept in ice for 10 min and then cells were triturated by a 27 gauge syringe (25 strokes) to become homogeneous followed by centrifugation at 13,000 × g for 30 min. The collected supernatant was the cytosolic fraction. After the pellet was washed with lysis buffer and it was dissolved in lysis buffer for protein quantification. Protein concentration was measured by Pierce BCA protein assay kit (Thermo Scientific Laboratories, Rockford, USA) according to the manufacturer instructions. Equal amounts of proteins from all samples were separated by 10% SDS–polyacrylamide gel electrophoresis (SDS-PAGE) and electrotransferred. Polyvinylidene difluoride (PVDF) membrane was blocked with 5% skimmed milk for 1 h, followed by incubation with primary (Cytochrome-c: sc-13560; Bid: sc-11423; COX-IV: #4850; 1:2000; GAPDH: #3683; 1:10,000) and HRP-conjugated secondary (Got Anti-mouse IgG: 20102; Got anti-rabbit IgG: 20202: 1:10,000) antibodies against specific proteins. The protein signals were detected by Enhanced Chemiluminescence (ECL) detection kit (Amersham Piscataway, NJ, USA). The protein expression levels were analyzed by measuring the intensity of the band from scanned films using Image-J software. GAPDH and COX-IV served as a housekeeping protein to normalize the expression levels.

Structure (SMILES) | Cytc gene expression up-regulation [1] [fold] | Mean survival rate of zebrafish embryos (zebrafish (ABiC) embryos [2]; 24 hpf, 50 μM) | Mean survival rate of zebrafish embryos (zebrafish (ABiC) embryos [2]; 24 hpf, 100 μM) | Mean survival rate of zebrafish embryos (zebrafish (ABiC) embryos [2]; 24 hpf, 200 μM) | Mean survival rate of zebrafish embryos (zebrafish (ABiC) embryos [2]; 48 hpf, 50 μM) | Mean survival rate of zebrafish embryos (zebrafish (ABiC) embryos [2]; 48 hpf, 100 μM) | Mean survival rate of zebrafish embryos (zebrafish (ABiC) embryos [2]; 48 hpf, 200 μM) | Mean survival rate of zebrafish embryos (zebrafish (ABiC) embryos [2]; 72 hpf, 50 μM) | Mean survival rate of zebrafish embryos (zebrafish (ABiC) embryos [2]; 72 hpf, 100 μM) | Mean survival rate of zebrafish embryos (zebrafish (ABiC) embryos [2]; 72 hpf, 200 μM) | Mean survival rate of zebrafish embryos (zebrafish (ABiC) embryos [2]; 96 hpf, 50 μM) | Mean survival rate of zebrafish embryos (zebrafish (ABiC) embryos [2]; 96 hpf, 100 μM) | Mean survival rate of zebrafish embryos (zebrafish (ABiC) embryos [2]; 96 hpf, 200 μM) | Casp-3 gene expression up-regulation [3] [fold] | inhibition of tumor growth rate [4] [%] | tumor growth reduction [4] [%] | survival rate of embryos compared with untreated and DMSO treated embryos (zebrafish (ABiC) embryos [5]) | Bid protein expression up-regulation [6] [fold] | inhibition of tumor growth [4] [%] | also measured
CC(C)C[C@@H]1NC(=O)[C@@H]2CCCN2C1=O [DKP-1, cyclo (L-Pro-L-Leu)] | 2.32 | 70.88 ± 3.44 | 73.33 ± 5.96 | 75 ± 5.77 | 70.88 ± 5.96 | 71.11 ± 1.54 | 73.33 ± 3.32 | 71.11 ± 3.44 | 71.11 ± 5.55 | 68.88 ± 6.91 | 66.66 ± 5.96 | 71.11 ± 9.10 | 66.66 ± 5.96 | 2.32 | 57 | 68 | no significant decrease | 1.32 |  | 
CC(C)[C@@H]1NC(=O)[C@@H]2CCCN2C1=O [DKP-2, cyclo (L-Pro-L-Val)] | 1.78 | 77.77 ± 5.41 | 82.22 ± 4.41 | 75.55 ± 3.44 | 80 ± 5.96 | 80 ± 5.96 | 75.55 ± 3.44 | 68.88 ± 3.44 | 77.33 ± 3.44 | 71.11 ± 6.88 | 66.66 ± 5.96 | 71.11 ± 9.10 | 66.66 ± 5.96 | 1.31 | 58 | 78 | no significant decrease | 1.21 | > 30 | 
O=C1N[C@@H](Cc2ccccc2)C(=O)N2CCC[C@@H]12 [DKP-3, cyclo (L-Pro-L-Phe)] | 4.29 | 80 ± 5.96 | 80 ± 5.96 | 75.55 ± 4.12 | 80 ± 5.96 | 80 ± 5.96 | 75.55 ± 4.12 | 77.77 ± 9.10 | 80 ± 5.96 | 73.33 ± 5.96 | 68.88 ± 6.88 | 80 ± 5.96 | 69.22 ± 12 | 1.76 | 68 | 81 |  | 1.76 | > 30 | tumor growth inhibition rates compared to other peptides ([4]; all time intervals, different doses): highest tumor growth inhibition rates; survival rate of embryos compared with untreated embryos (zebrafish (ABiC) embryos [5]; lower doses (50 and 150 μM)): higher
O=C1N[C@@H](Cc2ccc(O)cc2)C(=O)N2CCC[C@@H]12 [DKP-4, cyclo (L-Pro-L-Tyr)] | 3.62 | 79 ± 3.96 | 82 ± 2.96 | 71.55 ± 5.12 | 79 ± 3.96 | 81 ± 2.96 | 70.34 ± 3.33 | 75.51 ± 3.32 |  | 70.54 ± 3.51 | 71.11 ± 2.44 | 79.3 ± 2.77 | 68.24 ± 5.89 | 2.73 | 60 | 74 | no significant decrease |  | > 30 | Bid protein expression level ([6]; 100 μM, vs control and 200 μM): increased the expression level of Bid
